Assays:
[1] = Transdermic passage of sodium pentasaccharide salt by iontophoresis at set intensity through nude rat skin (Example 2); type: in vitro ADME
Description: The procedure as described in Example 1 was carried out, but with the following modifications:
implementation of the iontophoresis by setting a constant intensity through each cell
use of a continuous current instead of a pulsed current
the absence of buffer in the donor and back-electrode compartments in test 2d, because these compartments are equipped with electrodes of the Ag/AgCl type, which avoid hydrolysis of water.
[…], over a period of 6 hours, using a generator making it possible to set a constant intensity irrespective of the voltages generated across the terminals of each cell.

[2] = Administration of pentasaccharide sodium salt in minipigs: iontophoresis vs passive, I.V. and subcutaneous; plasma antifactor Xa (Example 3); type: in vivo, minipig (YUCATAN strain)
Description: Administration in minipigs of pentasaccharide sodium salt by iontophoresis at a set current density
Specialists consider minipigs of the YUCATAN strain to be an excellent animal model for studying the administration in man of medicaments by iontophoresis. This is because the skin structure of this animal is very similar to that of human skin.
The following tests were carried out on the aforementioned minipig with the aim of comparing the administration of the sodium salt of the pentasaccharide used in the previous examples by iontophoresis with administration by subcutaneous or intravenous injection.
For these tests, pairs of adhesive electrode sets were formed, each pair having a donor electrode assembly formed by a reversible negative electrode (active electrode) in contact with a first reservoir element holding the pentasaccharide to be administered, and a passive electrode assembly formed by a positive electrode (back electrode) in contact with a second reservoir element (receptacle element) holding an indifferent electrolyte.
Referring to the figure, each electrode assembly included a disc 1 of polyethylene foam having an axial cylindrical recess 2, the said disc having an adhesive face 3 and a non-adhesive face 4, each of the said faces having the shape of an annular area with a width of two centimetres. The end 5 of the recess in the disc, on the non-adhesive face side, was closed off by an electrode 6 in the form of a silver disc chlorided on one of its faces, the said disc having a cross-sectional area of 20 cm^2. The chlorided face 7 of the electrode disc is turned towards the interior of the recess. […] The said support disc, having a diameter intermediate between that of the electrode 6 and the disc 1, was bonded onto the non-adhesive face of the latter disc. The recess 2 in the disc 1 was filled with a conductive hydrogel 11 forming the reservoir element. The adhesive face 3 of the disc 1 was coated with a pressure-sensitive adhesive designed to be applied to the skin, the said face 3 and the face 12 adjacent to the reservoir element 11 being initially covered with a peelable non-stick polyester protective film which was removed before application to the skin.
In the donor electrode assembly, the negative electrode (active electrode) of chlorided silver contained a quantity of silver chloride equivalent to 1.8 mAh/cm^2, thus allowing the electrode to sustain the quantity of current flowing through the electrodes over the duration of the iontophoretic treatment, namely 1.2 mAh/cm^2. The reservoir element associated with the negative electrode was filled over a thickness of 2 mm, i.e. a quantity of 4 g over the 20 cm^2 of electrode, with a hydrogel based on xanthan and carob extract having 3% of dry extract and containing 2% by weight of sodium salt of the pentasaccharide of formula (I) given above. The donor electrode assembly therefore contained 80 mg of pentasaccharide in a ratio of 4 mg/cm^2 for each of the animals which were treated.
In the passive electrode assembly, the positive electrode (back electrode) made of chlorided silver contained a quantity of silver chloride equivalent to 0.1 mAh/cm^2, and the reservoir element associated with this electrode consisted of the same hydrogel as the one present in the donor electrode assembly, but without pentasaccharide and instead holding 4% by weight of NaCl.
An electrical signal generator, connectable to the electrodes of each electrode assembly pair, made it possible to deliver between the said electrodes a pulsed electrical signal of controlled intensity, having a frequency of 25 kHz and a duty ratio equal to 50%. […]

[3] = test system: factor Xa; test: Antifactor Xa activity of the pentasaccharide sodium salt; type: biochemical
Description: The assay of the pentasaccharide in the receiver compartment was based on investigating its antifactor Xa activity. The assay was carried out either directly on the medium sampled from the receiver compartment or after dilution, using a ROTACHROM HEPARIN 8® assay kit, a complementary buffer for the assay instrument and bovine antithrombin III, these various elements being supplied by the company STAGO, using a HITACHI 717 assay instrument. The calibration curve was established using a "Golden Standard" pentasaccharide solution to which an antifactor Xa activity equal to 13 units per ml was assigned.

[4] = test 2a: titanium, 0 mA/cm^2 (passive)
[5] = test 3b: iontophoresis 0.20 mA/cm^2, 6 hours
[6] = test 3c: I.V. bolus 0.240 mg/kg
[7] = test 3d: subcutaneous 0.200 mg/kg

O=C(O)C1OC(OC2C(COS(=O)(=O)O)OC(OC3C(C(=O)O)OC(OC4C(COS(=O)(=O)O)OC(O)C(NS(=O)(=O)O)C4O)C(OS(=O)(=O)O)C3O)C(NS(=O)(=O)O)C2OS(=O)(=O)O)C(O)C(O)C1OC1OC(COS(=O)(=O)O)C(O)C(O)C1NS(=O)(=O)O (stereo not drawn) [pentasaccharide]
Fraction of active principle used (%) ([1]; at 6 hours, test 2a: titanium, 0 mA/cm^2 (passive)): ~ zero
Fraction of active principle used (%) ([1]; at 6 hours, test 2b: graphite, 0.2 mA/cm^2): 0.09%
Fraction of active principle used (%) ([1]; at 6 hours, test 2c: titanium, 0.2 mA/cm^2): 0.49%
Fraction of active principle used (%) ([1]; at 6 hours, test 2d: Ag/AgCl, 0.2 mA/cm^2): 2.8%
Fraction of active principle used (%) ([1]; at 24 hours, test 2a: titanium, 0 mA/cm^2 (passive)): 0.09%
Fraction of active principle used (%) ([1]; at 24 hours, test 2b: graphite, 0.2 mA/cm^2): 0.9%
Fraction of active principle used (%) ([1]; at 24 hours, test 2c: titanium, 0.2 mA/cm^2): 0.75%
Fraction of active principle used (%) ([1]; at 24 hours, test 2d: Ag/AgCl, 0.2 mA/cm^2): 3.7%
Antifactor activity Xa/ml at 6 hours [1, 4]: 0.12 units per ml
Antifactor activity Xa/ml at 24 hours [1, 4]: 0.6 units per ml
total diffused quantity ([1]; test 2a: titanium, passive): 4.64 μg per cm^2
Antifactor activity Xa/ml at 6 hours ([1]; test 2b: graphite, 0.2 mA/cm^2): 6 units per ml
total diffused quantity ([1]; test 2b: graphite, 0.2 mA/cm^2): 45 μg per cm^2
Antifactor activity Xa/ml at 24 hours ([1]; test 2b: graphite, 0.2 mA/cm^2, 18 hours after current stopped): 5.8 units per ml
Antifactor activity Xa/ml at 6 hours ([1]; test 2c: titanium, 0.2 mA/cm^2): 3.2 units per ml
total diffused quantity ([1]; test 2c: titanium, 0.2 mA/cm^2): 38 μg per cm^2
Antifactor activity Xa/ml at 24 hours ([1]; test 2c: titanium, 0.2 mA/cm^2, 18 hours after current stopped): 4.9 units per ml
total diffused quantity per mAh ([1]; test 2d: Ag/AgCl electrodes): 154 μg/cm^2 per mAh
total diffused quantity ([1]; test 2d: Ag/AgCl, 0.2 mA/cm^2): 185 μg per cm^2
Antifactor activity Xa/ml at 6 hours ([1]; test 2d: Ag/AgCl, 0.2 mA/cm^2, no buffer): 18.1 units per ml
Antifactor activity Xa/ml at 24 hours ([1]; test 2d: Ag/AgCl, 0.2 mA/cm^2, 18 hours after current stopped): 24 units per ml
Plasma level at 0 minutes ([2]; test 3a: passive, no current): 0 "Golden standard" units of ant
Plasma level at 5 minutes ([2]; test 3a: passive, no current): 0 "Golden standard" units of ant
Plasma level at 15 minutes ([2]; test 3a: passive, no current): 0 "Golden standard" units of ant
Plasma level at 30 minutes ([2]; test 3a: passive, no current): 0 "Golden standard" units of ant
Plasma level at 1 hour ([2]; test 3a: passive, no current): 0 "Golden standard" units of ant
Plasma level at 2 hours ([2]; test 3a: passive, no current): 0 "Golden standard" units of ant
Plasma level at 4 hours ([2]; test 3a: passive, no current): 0 "Golden standard" units of ant
Plasma level at 6 hours ([2]; test 3a: passive, no current): 0 "Golden standard" units of ant
Plasma level at 8 hours ([2]; test 3a: passive, no current): 0 "Golden standard" units of ant
Plasma level at 12 hours ([2]; test 3a: passive, no current): 0 "Golden standard" units of ant
Plasma level at 24 hours ([2]; test 3a: passive, no current): 0 "Golden standard" units of ant
Plasma level at 30 hours ([2]; test 3a: passive, no current): 0 "Golden standard" units of ant
plasma levels, expressed in terms of antifactor Xa, compared with intravenous or subcutaneous injections ([2]; test 3b: iontophoresis): higher plasma levels
Plasma level at 0 minutes [2, 5]: 0 "Golden standard" units of ant
Plasma level at 15 minutes [2, 5]: 0.06 ± 0.04 "Golden standard" units of ant
Plasma level at 30 minutes [2, 5]: 0.15 ± 0.12 "Golden standard" units of ant
Plasma level at 1 hour [2, 5]: 0.31 ± 0.15 "Golden standard" units of ant
Plasma level at 2 hours [2, 5]: 0.45 ± 0.2 "Golden standard" units of ant
Plasma level at 4 hours [2, 5]: 0.64 ± 0.18 "Golden standard" units of ant
Plasma level at 6 hours [2, 5]: 0.74 ± 0.16 "Golden standard" units of ant
Plasma level at 8 hours [2, 5]: 0.52 ± 0.13 "Golden standard" units of ant
Plasma level at 12 hours [2, 5]: 0.4 ± 0.08 "Golden standard" units of ant
Plasma level at 24 hours [2, 5]: 0.11 ± 0.03 "Golden standard" units of ant
Plasma level at 30 hours [2, 5]: 0 "Golden standard" units of ant
bioavailability (active principle administered, normalized to quantity present in the electrodes) ([2]; test 3b, 80 mg engaged): about 9%
quantity of pentasaccharide administered per mAh ([2]; test 3b, for 1 mAh/cm^2): 292 μg/cm^2
quantity of pentasaccharide administered per cm^2 ([2]; test 3b, for 1.2 mAh/cm^2): 350 μg/cm^2
quantity of pentasaccharide actually administered by iontophoresis ([2]; test 3b, for the 20 cm^2, from areas under the curves): 7 ± 1.3 mg
Plasma level at 0 minutes [2, 6]: 0 "Golden standard" units of ant
Plasma level at 5 minutes [2, 6]: 1.04 ± 0.12 "Golden standard" units of ant
Plasma level at 15 minutes [2, 6]: 0.91 ± 0.13 "Golden standard" units of ant
Plasma level at 30 minutes [2, 6]: 0.65 ± 0.11 "Golden standard" units of ant
Plasma level at 1 hour [2, 6]: 0.53 ± 0.10 "Golden standard" units of ant
Plasma level at 2 hours [2, 6]: 0.30 ± 0.09 "Golden standard" units of ant
Plasma level at 4 hours [2, 6]: 0.29 ± 0.08 "Golden standard" units of ant
Plasma level at 6 hours [2, 6]: 0.22 ± 0.09 "Golden standard" units of ant
Plasma level at 8 hours [2, 6]: 0.17 ± 0.06 "Golden standard" units of ant
Plasma level at 12 hours [2, 6]: 0.07 ± 0.05 "Golden standard" units of ant
Plasma level at 24 hours [2, 6]: 0 "Golden standard" units of ant
Plasma level at 30 hours [2, 6]: 0 "Golden standard" units of ant
Plasma level at 0 minutes [2, 7]: 0 "Golden standard" units of ant
Plasma level at 15 minutes [2, 7]: 0.11 ± 0.04 "Golden standard" units of ant
Plasma level at 1 hour [2, 7]: 0.17 ± 0.01 "Golden standard" units of ant
Plasma level at 2 hours [2, 7]: 0.22 ± 0.04 "Golden standard" units of ant
Plasma level at 4 hours [2, 7]: 0.26 ± 0.06 "Golden standard" units of ant
Plasma level at 6 hours [2, 7]: 0.24 ± 0.01 "Golden standard" units of ant
Plasma level at 8 hours [2, 7]: 0.15 ± 0.07 "Golden standard" units of ant
Plasma level at 12 hours [2, 7]: 0.08 ± 0.03 "Golden standard" units of ant
Plasma level at 24 hours [2, 7]: 0 "Golden standard" units of ant
Plasma level at 30 hours [2, 7]: 0 "Golden standard" units of ant
antifactor Xa activity [3]: 0.65 "Golden Standard" units per microgram
